Source: US4070469A, “Compound for the treatment of bovine mastitis” (priority 1975, dated 1978)
In brackets after ≈: the same amount, converted by molar mass. Read-outs that look alike come from different tables or passages of the source.

Tests used:
[1] = test system: Staph.Aureus; assay: Minimal bactericidal activity (MBC) in milk, field isolates; format: cell-based; settings: Staphylococcus aureus
Description: (§1) The activity of some of said nitrofuryl quinolines derivatives against Strep.uberis and Stap.Aureus in milk has been compared with the activity of some of the compounds so far utilised in the treatment of bovine mastitis. The results are shown in Table I. (The nitrofuryl quinoline derivatives have general formula [drawing 1] the meaning of R, A, R', B, Y, X and Z being given in the Table. R1 =O whenever indicated then the N-oxide is concerned; NF stands for nitrofuryl)
(§2) Minimal Bactericidal/Activity (MBC) of representative Nitrofuryl
(§3) in mcg/ml in milk at pH 7.2 - 7.4. Versus Standards (Field

[2] = test system: Strep.uberis; assay: as above; format: cell-based; settings: Streptococcus uberis
Description: as §1, §2, §3

[3] = in milk at pH 7.2 - 7.4, field isolate 2337, read-out: Minimal Bactericidal Activity (MBC), Staph.Aureus 2337
[4] = in milk at pH 7.2 - 7.4, field isolate 2372, read-out: Minimal Bactericidal Activity (MBC), Staph.Aureus 2372
[5] = in milk at pH 7.2 - 7.4, field isolate 60B, read-out: Minimal Bactericidal Activity (MBC), Strep.uberis 60B
[6] = in milk at pH 7.2 - 7.4, field isolate 127A, read-out: Minimal Bactericidal Activity (MBC), Strep.uberis 127A
[7] = read-out: Minimal Bactericidal Activity (MBC), Staph.Aureus 2337
[8] = read-out: Minimal Bactericidal Activity (MBC), Staph.Aureus 2372
[9] = read-out: Minimal Bactericidal Activity (MBC), Strep.uberis 60B
[10] = read-out: Minimal Bactericidal Activity (MBC), Strep.uberis 127A

| Compound | MBC [1, 3] [µg/mL] | MBC [1, 4] [µg/mL] | MBC [2, 5] [µg/mL] | MBC [2, 6] [µg/mL] | MBC [1, 7] [µg/mL] | MBC [1, 8] [µg/mL] | MBC [2, 9] [µg/mL] | MBC [2, 10] [µg/mL] |
| --- | --- | --- | --- | --- | --- | --- | --- | --- |
| Cc1ccc2nc(C)cc(-c3ccc([N+](=O)[O-])o3)c2c1 [Compound 27] | 10 (≈ 37.3 µM) | 10 (≈ 37.3 µM) | 10 (≈ 37.3 µM) | 10 (≈ 37.3 µM) | – | – | – | – |
| Cc1cc(-c2ccc([N+](=O)[O-])o2)c2ccc(Cl)cc2n1 [Compound 28] | > 10 | > 10 | > 10 | > 10 | – | – | – | – |
| Cc1ccc2c(c1)c(-c1ccc([N+](=O)[O-])o1)cc(C)[n+]2[O-] [Compound 29] | 5 (≈ 17.6 µM) | 5 (≈ 17.6 µM) | 5 (≈ 17.6 µM) | 5 (≈ 17.6 µM) | – | – | – | – |
| CCc1cc(-c2ccc([N+](=O)[O-])o2)c2ccccc2[n+]1[O-] [Compound 30] | 5 (≈ 17.6 µM) | 10 (≈ 35.2 µM) | 5 (≈ 17.6 µM) | > 10 | – | – | – | – |
| CCc1ccc2nc(CC)cc(-c3ccc([N+](=O)[O-])o3)c2c1 [Compound 31] | > 10 | > 10 | > 10 | > 10 | – | – | – | – |
| CCc1ccc2c(c1)c(-c1ccc([N+](=O)[O-])o1)cc(CC)[n+]2[O-] [Compound 32] | > 10 | > 10 | 1 (≈ 3.2 µM) | > 10 | – | – | – | – |
| CC(=O)OCc1cc(-c2ccc([N+](=O)[O-])o2)c2ccccc2n1 [Compound 33] | > 10 | > 10 | > 10 | > 10 | – | – | – | – |
| COc1cc2nc(C)cc(-c3ccc([N+](=O)[O-])o3)c2cc1N [Compound 34] | 5 (≈ 16.7 µM) | 5 (≈ 16.7 µM) | 0.25 (≈ 0.835 µM) | 1 (≈ 3.34 µM) | – | – | – | – |
| Cc1cc(-c2ccc([N+](=O)[O-])o2)c2ccc(N)c(C)c2n1 [Compound 35] | 5 (≈ 17.6 µM) | 5 (≈ 17.6 µM) | 5 (≈ 17.6 µM) | 10 (≈ 35.3 µM) | – | – | – | – |
| CNN=Cc1cc(-c2ccc([N+](=O)[O-])o2)c2ccccc2n1 [Compound 36] | > 10 | 5 (≈ 16.9 µM) | 5 (≈ 16.9 µM) | 5 (≈ 16.9 µM) | – | – | – | – |
| COc1cc2nc(C)cc(-c3ccc([N+](=O)[O-])o3)c2cc1OC [Compound 37] | 10 (≈ 31.8 µM) | 5 (≈ 15.9 µM) | 5 (≈ 15.9 µM) | 10 (≈ 31.8 µM) | – | – | – | – |
| CCOc1ccc2c(-c3ccc([N+](=O)[O-])o3)cc(C=NO)nc2c1 [Compound 38] | 10 (≈ 30.6 µM) | 5 (≈ 15.3 µM) | 5 (≈ 15.3 µM) | 10 (≈ 30.6 µM) | – | – | – | – |
| COc1cc2c(-c3ccc([N+](=O)[O-])o3)cc(C)[n+]([O-])c2cc1OC [Compound 39] | 10 (≈ 30.3 µM) | 0.5 (≈ 1.51 µM) | 0.25 (≈ 0.757 µM) | 1 (≈ 3.03 µM) | – | – | – | – |
| CCc1cc(-c2ccc([N+](=O)[O-])o2)c2cc(C)c(C)cc2[n+]1[O-] [Compound 40] | 5 (≈ 16 µM) | 5 (≈ 16 µM) | 5 (≈ 16 µM) | 10 (≈ 32 µM) | – | – | – | – |
| O=[N+]([O-])c1ccc(-c2cc[n+]([O-])c3ccccc23)o1 [Compound 41] | 10 (≈ 39 µM) | 5 (≈ 19.5 µM) | 5 (≈ 19.5 µM) | 10 (≈ 39 µM) | – | – | – | – |
| CCCOc1ccc2c(-c3ccc([N+](=O)[O-])o3)cc(C)[n+]([O-])c2c1 [Compound 42] | 10 (≈ 30.5 µM) | 5 (≈ 15.2 µM) | 5 (≈ 15.2 µM) | 5 (≈ 15.2 µM) | – | – | – | – |
| CC[C@H]1OC(=O)[C@H](C)[C@@H](O[C@H]2C[C@@](C)(OC)[C@@H](O)[C@H](C)O2)[C@H](C)[C@@H](O[C@@H]2O[C@H](C)C[C@H](N(C)C)[C@H]2O)[C@](C)(O)C[C@@H](C)C(=O)[C@H](C)[C@@H](O)[C@]1(C)O [Erythremycin, reference compound] | 0.78 (≈ 1.06 µM) | 6.25 (≈ 8.52 µM) | 0.39 (≈ 0.531 µM) | 3.12 (≈ 4.25 µM) | – | – | – | – |
| O=C1OC(CN2CCOCC2)CN1/N=C/c1ccc([N+](=O)[O-])o1 (centres unmarked) [Furaltadone, reference compound] | 10 (≈ 30.8 µM) | 10 (≈ 30.8 µM) | 1 (≈ 3.08 µM) | > 10 | – | – | – | – |
| O=C1OCCN1/N=C/c1ccc([N+](=O)[O-])o1 [Furazolidone, reference compound] | > 10 | > 10 | 10 (≈ 44.4 µM) | > 10 | – | – | – | – |
| NC[C@H]1O[C@H](O[C@H]2[C@H](O)[C@@H](O[C@H]3O[C@H](CO)[C@@H](O)[C@H](N)[C@H]3O)[C@H](N)C[C@@H]2N)[C@H](O)[C@@H](O)[C@@H]1O [Kanamycin, reference compound] | – | – | – | – | 12.5 (≈ 25.8 µM) | 12.5 (≈ 25.8 µM) | 100 (≈ 206 µM) | 100 (≈ 206 µM) |
| CN(C)[C@@H]1C(=O)C(C(N)=O)=C(O)[C@@]2(O)C(=O)C3=C(O)c4c(O)cccc4[C@@](C)(O)[C@H]3[C@H](O)[C@@H]12 [Oxytetracyclin, reference compound] | – | – | – | – | 25 (≈ 54.3 µM) | 50 (≈ 109 µM) | 0.78 (≈ 1.69 µM) | > 50 |
| CC1(C)S[C@@H]2[C@H](NC(=O)Cc3ccccc3)C(=O)N2[C@H]1C(=O)O [Penicillin G, reference compound] | > 50 | > 50 | 0.06 (≈ 0.179 µM) | 1.56 (≈ 4.67 µM) | – | – | – | – |
| CO[C@H]1/C=C/O[C@@]2(C)Oc3c(C)c(O)c4c(O)c(cc(O)c4c3C2=O)NC(=O)/C(C)=C\C=C\[C@H](C)[C@H](O)[C@@H](C)[C@@H](O)[C@@H](C)[C@H](OC(C)=O)[C@@H]1C [Rifamycin, reference compound] | 0.12 (≈ 0.172 µM) | 0.12 (≈ 0.172 µM) | 3.12 (≈ 4.47 µM) | > 50 | – | – | – | – |
